Columns and labels:
[1] = target: T1, 11β-HSD1 (Homo sapiens, UniProt P28845); experiment: 11β-HSD1 dehydrogenase activity (oxidation of cortisol) in lysates of HEK-293 cells expressing recombinant enzyme, competition by 7-oxygenated neurosteroids; assay type: biochemical; conditions: HEK-293 lysates; 50 nM [3H]-cortisol, 500 µM cofactor NAD+; mean±S.D., four experiments
T1 construct: expressed in transfected cells; host or cells: HEK-293 (transient, Ca2+-phosphate precipitation)
Description: (§1) HEK-293 cells were cultured in Dulbecco's Modified Eagle's Medium (DMEM) supplemented with 10% fetal calf serum (FCS), 50 units/ml penicillin, 50 µg/ml streptomycin and 2 mM glutamine. Cells were transfected with expression plasmids for FLAG-tagged 11β-HSD1 and myc-tagged H6PDH or pcDNA3.1 control using the Ca^2+-phosphate precipitation method. The epitope tags had no effect on enzymatic activities or expression levels of 11β-HSD1 and H6PDH [10], [49]. A total amount of 8 µg DNA was used per 10 cm culture dish or 2 µg DNA per well of a six-well culture plate.
(§2) The enzyme activity in intact cells was measured as described. Briefly, HEK-293 cells, grown in 10 cm culture dishes and transfected with FLAG-tagged 11β-HSD1 alone or co-transfected with myc-tagged H6PDH, were detached 24 h post-transfection and distributed in 96-well plates at a density of 30′000–40′000 cells per well. After 16 h, cells were incubated in serum- and steroid-free medium and the conversion of radiolabeled cortisone to cortisol (or the reverse activity) was determined upon incubation for 1 h at 37°C in a total volume of 50 µl containing 200 nM cortisone (or cortisol). The reaction was stopped by adding methanol containing 2 mM unlabeled cortisone and cortisol, followed by separation of steroids by TLC and scintillation counting. Measurements with freshly prepared cell lysates were carried out in the presence of [1,2,6,7-^3H]-cortisone and cofactor NADPH at final concentrations of 200 nM and 500 µM for the reductase reaction and with 50 nM [1,2,6,7-^3H]-cortisol and 500 µM cofactor NAD^+ for the dehydrogenase reaction, respectively, in the absence or presence of various concentrations of competing 7-oxygenated neurosteroid ligands. The concentration of dimethylsulfoxide or methanol from the solvent was 0.1% in all reactions and had no effect on enzyme activity. Data (mean±SD) were obtained from four independent experiments and were calculated using the Data Analysis Toolbox (Elsevier MDL, Allschwil, Switzerland).

[2] = target: T1, 11β-HSD1; experiment: 11β-HSD1 reductase activity (reduction of cortisone) in lysates of HEK-293 cells expressing recombinant enzyme, competition by 7-oxygenated neurosteroids; assay type: biochemical; conditions: HEK-293 lysates; 200 nM [3H]-cortisone, 500 µM NADPH; mean±S.D., four experiments
Description: as §1, §2

[3] = target: T2, 11β-HSD1/H6PDH (Homo sapiens, UniProt P28845); experiment: Steady state ratio of cortisone to cortisol in intact HEK-293 cells coexpressing 11β-HSD1 and H6PDH; assay type: cell-based; conditions: 11β-HSD1/H6PDH cells, 16 h, 20 µM inhibitor, n = 4
T2 construct: expressed in transfected cells; host or cells: HEK-293 (transient co-transfection, Ca2+-phosphate precipitation)
Description: as §1
as §2, with “After 16 h, cells were incubated in serum- and steroid-free medium and the conversion of radiolabeled cortisone to cortisol (or the reverse activity) was determined upon incubation for 1 h at 37°C in a total volume of 50 µl containing 200 nM cortisone (or cortisol).” left out

[4] = target: T1, 11β-HSD1; experiment: Steady state ratio of cortisone to cortisol in intact HEK-293 cells expressing 11β-HSD1; assay type: cell-based; conditions: 16 h, 20 µM inhibitor
Description: as §1, §2

[5] = target: T1, 11β-HSD1; experiment: 7-keto-steroid reductase and 7-hydroxy-steroid dehydrogenase activity in intact transfected HEK-293 cells (GC-MS); assay type: cell-based; conditions: 1 µM inhibitor, intact HEK-293 cells
Description: as §1
HEK-293 cells were seeded in six-well plates at a density of 900′000 cells per well. After 24 h, cells were transfected with expression vector for 11β-HSD1 or co-transfected with vectors for 11β-HSD1 and H6PDH. An empty pcDNA3.1 plasmid was used in transfections lacking H6PDH to adjust total DNA amounts in all samples. The medium was replaced 18 h post-transfection by steroid-free medium followed by addition of 1 µM of the steroid substrate to be tested. […] After incubation for various time intervals, reactions were terminated by addition of an equal volume of dichloromethane, containing 500 ng medroxyprogesterone as an internal standard. Since radiolabeled C7-oxygenated metabolites were not commercially available, we applied GC-MS for detection. […]

[6] = 11β-HSD1 cells, 200 nM radiolabeled cortisone, n = 4

T1 sequence (P28845 whole entry): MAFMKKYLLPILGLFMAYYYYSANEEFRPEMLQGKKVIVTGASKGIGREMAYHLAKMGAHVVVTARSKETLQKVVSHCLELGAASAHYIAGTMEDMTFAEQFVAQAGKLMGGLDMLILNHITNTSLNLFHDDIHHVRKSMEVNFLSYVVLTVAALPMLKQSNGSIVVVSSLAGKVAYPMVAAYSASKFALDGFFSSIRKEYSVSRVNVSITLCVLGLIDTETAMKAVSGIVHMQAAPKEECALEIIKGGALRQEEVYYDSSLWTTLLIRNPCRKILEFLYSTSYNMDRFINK
T2 sequence (P28845 whole entry): as above

Which results are given for `C[C@]12CC[C@H](O)C[C@@H]1CC(=O)[C@@H]1[C@@H]2CC[C@]2(C)C(=O)CC[C@@H]12` [5α-androstane-3β-ol-7,17dione, 5α-androstane-3β-ol-7,17-dione]?
IC50 [1]: 18 ± 1 µM; IC50 [2]: 0.5 ± 0.11 µM

With `C[C@]12CC[C@H](O)CC1=CC(=O)[C@@H]1[C@@H]2CC[C@]2(C)C(=O)CC[C@@H]12` [7-ketodehydroepiandrosterone] as the molecule, how does the IC50 [1] read?
Its IC50 is 29 ± 5 µM.

And the IC50 [2]?
The IC50 was 0.82 ± 0.07 µM.

Which IC50 [1] does the source give for `CC(=O)[C@H]1CC[C@H]2[C@@H]3C(=O)C=C4C[C@@H](O)CC[C@]4(C)[C@H]3CC[C@]12C` [7-ketopregnenolone] here?
Its IC50 is 5.4 ± 0.5 µM.

And the IC50 [2]?
The IC50 was 0.68 ± 0.11 µM.

What does the source list for `C[C@]12CC[C@H](O)CC1=C[C@@H](O)[C@@H]1[C@@H]2CC[C@]2(C)C(=O)CC[C@@H]12` [7α-hydroxydehydroepiandrosterone]?
IC50 [1]: 16 ± 1 µM; IC50 [2]: 45 ± 2 µM

What does the source list for `C[C@]12CC[C@H](O)CC1=C[C@H](O)[C@@H]1[C@@H]2CC[C@]2(C)C(=O)CC[C@@H]12` [7β-hydroxydehydroepiandrosterone]?
IC50 [1]: 0.54 ± 0.05 µM; IC50 [2]: 7.7 ± 0.8 µM

How did the IC50 [1] turn out when `CC(=O)[C@H]1CC[C@H]2[C@@H]3[C@@H](O)C=C4C[C@@H](O)CC[C@]4(C)[C@H]3CC[C@]12C` [7β-hydroxypregnenolone] was run?
The IC50 was 1.34 ± 0.49 µM.

And the IC50 [2]?
The IC50 was 2.4 ± 0.5 µM.

With `O=C1CC(c2ccccc2)Oc2ccccc21` (stereo not shown) [Flavanone, flavanone] as the molecule, how does the “cortisol, percentage of total glucocorticoid (oxidation of cortisol to cortisone)” value ([3]; 200 nM radiolabeled cortisol) read?
Its value is 90.9%.

And the “cortisone, percentage of total glucocorticoid (oxidation of cortisol to cortisone)” value ([3]; 200 nM radiolabeled cortisol)?
The value was 9.1%.

What about the “cortisol, percentage of total glucocorticoid (reduction of cortisone to cortisol)” value ([3]; 200 nM radiolabeled cortisone) of the same molecule?
The value was 91.7%.

What about the “cortisone, percentage of total glucocorticoid (reduction of cortisone to cortisol)” value ([3]; 200 nM radiolabeled cortisone) of the same molecule?
The value was 8.3%.

And the “cortisol, percentage of total glucocorticoid (oxidation of cortisol to cortisone)” value ([4]; 11β-HSD1 cells, 200 nM radiolabeled cortisol, n = 4)?
Its value is 61.2%.

What about the “cortisol, percentage of total glucocorticoid (reduction of cortisone to cortisol)” value [4, 6] of the same molecule?
Its value is 74.1%.

And the “cortisone, percentage of total glucocorticoid (reduction of cortisone to cortisol)” value [4, 6]?
Its value is 25.9%.

And the “effect of inhibitor on the steady state ratio of glucocorticoids” value ([4]; HEK-293 cells with 11β-HSD1 alone or with H6PDH)?
Its value is “little or no effect on the steady state ratio of glucocorticoids”.

What does the source list for `C1CCc2nnc(C34CC5CC(CC(C5)C3)C4)n2CC1` [T0504, 5H-1,2,4-triazolo(4,3-a)azepine,6,7,8,9-tetrahydro-3-tricyclo(3·3·1·13·7)dec-1-yl]?
effect of inhibitor on 11β-HSD1-dependent metabolism of 7α-hydroxy-DHEA ([5]; 1 µM 7α-hydroxy-DHEA substrate, 3 h): prevented the formation of 7β-hydroxy-DHEA and 7-keto-DHEA; effect of inhibitor on 11β-HSD1-dependent metabolism of 7-ketopregnenolone and 5α-androstane-3β-ol-7,17-dione ([5]; 1 µM substrate, 3 h or 6 h): almost completely abolished

— publication PMC1891437, “Hexose-6-phosphate Dehydrogenase Modulates 11β-Hydroxysteroid Dehydrogenase Type 1-Dependent Metabolism of 7-keto- and 7β-hydroxy-neurosteroids” (PLoS ONE, 2007)
